Data taken from patent US11071731B2, “Allosteric modulators of the mu opioid receptor” (Chiromics, LLC, priority 2017, dated 2021).

What was measured:
mu opioid receptor (MOR) [1] = target: T1, mu opioid receptor (MOR) (Homo sapiens, UniProt P35372); experiment: Hit Hunter cAMP signaling assay (adenylyl cyclase inhibition), PAM mode with EC20 endomorphin-1; format: cell-based; settings: for cAMP Max. Resp.: maximal response for adenylyl cyclase inhibition
mu opioid receptor (MOR) [2] = target: T1, mu opioid receptor (MOR); experiment: PathHunter β-arrestin recruitment assay, PAM mode with EC20 endomorphin-1; format: cell-based; settings: for β-arr Max. Resp.: maximal response for β-arrestin recruitment; for EC50: β-arrestin recruitment, read-out: β-arr. EC50
Outline: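 Enzyme fragment complementation read-out: β-gal ED fragment fused to receptor, EA fused to β-arrestin, recruitment restoring β-gal activity detected by chemiluminescence. EC50 and percent maximal response derived for each compound.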

[3] = cAMP EC50, adenylyl cyclase inhibition
[4] = adenylyl cyclase inhibition, read-out: cAMP EC50

T1 sequence (P35372 whole entry): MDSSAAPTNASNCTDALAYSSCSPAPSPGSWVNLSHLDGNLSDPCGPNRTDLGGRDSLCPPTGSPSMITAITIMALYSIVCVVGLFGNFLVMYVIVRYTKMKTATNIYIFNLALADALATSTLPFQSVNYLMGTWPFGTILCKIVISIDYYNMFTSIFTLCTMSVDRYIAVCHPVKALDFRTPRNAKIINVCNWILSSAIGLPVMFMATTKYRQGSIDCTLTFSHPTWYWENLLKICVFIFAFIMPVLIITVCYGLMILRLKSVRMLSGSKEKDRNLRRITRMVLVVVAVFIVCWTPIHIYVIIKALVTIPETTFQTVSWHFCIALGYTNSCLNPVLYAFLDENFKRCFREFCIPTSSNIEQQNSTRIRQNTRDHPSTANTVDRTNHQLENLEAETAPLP

| SMILES | EC50 (mu opioid receptor (MOR) [1]; [3]) | cAMP Max. Resp. (mu opioid receptor (MOR) [1]) | β-arr Max. Resp. (mu opioid receptor (MOR) [2]) | EC50 (mu opioid receptor (MOR) [2]) | EC50 (mu opioid receptor (MOR) [1]; [4]) |
| --- | --- | --- | --- | --- | --- |
| COc1ccc(C2CCCCN2c2cncc(C(F)(F)F)n2)cc1Br (stereo not drawn) [compound 230] | > 2100 nM | F (F represents a maximal response of > 60%) | F (F represents a maximal response of > 60%) | > 2100 nM | – |
| COc1ccc(C2CCCCN2c2ccc(Br)cn2)cc1Br (stereo not drawn) [compound 231] | > 2100 nM | E (E represents a maximal response of 40-60%) | E (E represents a maximal response of 40-60%) | > 2100 nM | – |
| COc1ccc(C2CCCCN2c2ccc(C(F)(F)F)cn2)cc1Br (stereo not drawn) [compound 232] | > 2100 nM | F (F represents a maximal response of > 60%) | F (F represents a maximal response of > 60%) | > 2100 nM | – |
| COc1ccc(C2CCCCN2c2ncncc2F)cc1Br (stereo not drawn) [compound 233] | > 2100 nM | F (F represents a maximal response of > 60%) | F (F represents a maximal response of > 60%) | > 2100 nM | – |
| COc1ccc(C2CCCCN2c2nc(Cl)ncc2C)cc1Br (stereo not drawn) [compound 234] | > 2100 nM | F (F represents a maximal response of > 60%) | F (F represents a maximal response of > 60%) | > 2100 nM | – |
| COc1ccc(C2CCCCN2c2nc(Cl)ncc2OC)cc1Br (stereo not drawn) [compound 235] | > 2100 nM | F (F represents a maximal response of > 60%) | F (F represents a maximal response of > 60%) | > 2100 nM | – |
| COc1ccc(C2CCCCN2c2ncc(C)c(Cl)n2)cc1Br (stereo not drawn) [compound 236] | > 2100 nM | F (F represents a maximal response of > 60%) | F (F represents a maximal response of > 60%) | > 2100 nM | – |
| COc1ccc(C2CC(C)CN2c2nc(Cl)ncc2F)cc1Br (stereo not drawn) [compound 237] | – | D (D represents a maximal response of < 40%) | E (E represents a maximal response of 40-60%) | > 2100 nM | > 2100 nM |
| O=C1CCN(c2nc(Cl)ncc2F)C(c2cc(F)cc(C(F)(F)F)c2)C1 (stereo not drawn) [compound 238] | > 2100 nM | D (D represents a maximal response of < 40%) | E (E represents a maximal response of 40-60%) | > 2100 nM | – |
| O=C1CCN(c2nc(Cl)ncc2F)C(c2cccc(C(F)(F)F)c2)C1 (stereo not drawn) [compound 239] | > 2100 nM | D (D represents a maximal response of < 40%) | E (E represents a maximal response of 40-60%) | > 2100 nM | – |
| O=C1CCN(c2nc(Cl)ncc2F)C(c2ccc(F)c(Br)c2)C1 (stereo not drawn) [compound 240] | > 2100 nM | E (E represents a maximal response of 40-60%) | D (D represents a maximal response of < 40%) | > 2100 nM | – |
| OC1CCN(c2nc(Cl)ncc2F)C(c2ccc(F)c(Br)c2)C1 (stereo not drawn) [compound 241] | > 2100 nM | E (E represents a maximal response of 40-60%) | F (F represents a maximal response of > 60%) | > 2100 nM | – |
| CN(C)c1ncc(F)c(N2CCCCC2c2cccc(F)n2)n1 (stereo not drawn) [compound 242] | > 2100 nM | D (D represents a maximal response of < 40%) | D (D represents a maximal response of < 40%) | > 2100 nM | – |
| CN(C)c1cccc(C2CCCCN2c2nc(N(C)C)ncc2F)n1 (stereo not drawn) [compound 243] | > 2100 nM | E (E represents a maximal response of 40-60%) | F (F represents a maximal response of > 60%) | > 2100 nM | – |
| Fc1ccc(C2CC=CCN2c2nc(Cl)ncc2F)cc1Br (stereo not drawn) [compound 244] | – | D (D represents a maximal response of < 40%) | F (F represents a maximal response of > 60%) | < 700 nM | < 700 nM |
| COc1ccc(C2CCCCN2Cc2cccc(Cl)c2F)cc1Br (stereo not drawn) [compound 245] | > 2100 nM | D (D represents a maximal response of < 40%) | D (D represents a maximal response of < 40%) | > 2100 nM | – |
| Fc1ccc(C2CC(F)(F)CCN2c2nc(Cl)ncc2F)cc1Br (stereo not drawn) [compound 246] | 700 to 2100 nM | D (D represents a maximal response of < 40%) | F (F represents a maximal response of > 60%) | 700 to 2100 nM | – |
| CCCC1CCCN(c2nc(Cl)ncc2F)C1c1cccc(C(F)(F)F)c1 (stereo not drawn) [compound 247] | – | E (E represents a maximal response of 40-60%) | F (F represents a maximal response of > 60%) | > 2100 nM | > 2100 nM |
